Patent publication US20090246292A1, “ANTIMICROBIAL FORMULATIONS COMPRISING A QUINONE AND A COPPER SALT” (priority 2006, published 2009)
In brackets after ≈: the same amount, converted by molar mass.

What was measured:
[1] = test system: panel of different propionibacterium strains; assay: MIC by agar dilution and (S)DDA, whole panel; assay type: cell-based, Propionibacterium spp; conditions: compound alone; also under supplemented conditions
Procedure: For (S)DDA experiments 200 μg of each test compound was added per disc. […] MIC experiments were performed in duplicate, DDA experiments as single replicates only. SDDA experiments were conducted in triplicate.
The activity of the salt (MIC by agar dilution and DDA) was also determined against a panel of different propionibacterium strains. Supplemented DDA experiments were also carried out. […] DMSO was used as the diluting solvent. MIC experiments were performed in duplicate and DDA experiments as single replicates only.

[2] = test system: panel of different staphylococcal strains; conditions: compound alone; also under supplemented conditions
Procedure: The activity of the salt was also determined against a panel of different staphylococcal strains, including some with known antibiotic resistance. MIC, MBC and DDA assays were carried out as described above for each of the strains, including determining the effect of the presence of salt and serum.
For DDA experiments 200 μg of the test compound was added per disc. DMSO was used as the diluting solvent. All experiments were performed in triplicate.

[3] = test system: Staphylococcus haemolyticus ATCC 29970; conditions: triplicate
Procedure: The staphylococci were cultured and maintained on Mueller-Hinton Medium (agar and broth) at pH 7.2; cultures were incubated aerobically at 37° C. for 19-20 hours.
This is a standard international method for quantitatively assessing the antimicrobial activity of a compound in a liquid medium. The method used a sterile 96-well microtitre plate, capable of holding about 200 μl of liquid per well. […] The culture media were as described above.
The wells were inoculated with a liquid suspension of freshly grown micro-organism and incubated under the conditions described above. After incubation, the microtitre plate was examined visually (with the aid of a light box) for cloudiness in each well, which would indicate microbial growth. The MIC value was recorded as the lowest concentration of test compound required to inhibit microbial growth, ie, the lowest concentration for which the liquid in the well remained clear.

P. acnes PRP-059 = assay: Disc diffusion assay (DDA), also supplemented; assay type: cell-based, Propionibacterium acnes; conditions: Table 12 series, 200 μg per disc
Procedure: (§6) The propionibacteria were cultured and maintained on Wilkins-Chalgren Anaerobe Medium (agar and broth) at pH 6.0; all cultures were incubated anaerobically at 37° C. for 72 hours.
(§7) A sterile paper disc was impregnated with a sample of the test compound in a suitable solvent and 30 minutes allowed for the solvents to evaporate (where possible). The disc was then placed on an agar plate onto which the test micro-organism had been inoculated. The plate was then incubated under the conditions described above, following which it was examined visually for signs of bacterial growth. […] The diameter of this zone of “inhibition” was measured using a ProtoCOL™ automated zone sizer (Synbiosis, Cambridge, UK).
(§8) For assays using Propionibacterium spp. strains the supplements used in the examples below were lipid (either Tween™ 80 or triolein, both at 1% v/v) and sodium chloride (100 mM).

P. acnes PRP-004 = assay: Disc diffusion assay (DDA), also supplemented; assay type: cell-based, Propionibacterium acnes; conditions: Table 12 series, 200 μg per disc
Procedure: as §6, §7, §8

P. acnes PRP-039 = assay: Disc diffusion assay (DDA), also supplemented; assay type: cell-based, Propionibacterium acnes; conditions: Table 12 series, 200 μg per disc
P. granulosum PRP-019 = assay: Disc diffusion assay (DDA), also supplemented; assay type: cell-based; conditions: Table 12 series, 200 μg per disc
Procedure: as §6, §7, §8

P. acnes PRP-053 = assay: Disc diffusion assay (DDA), also supplemented; assay type: cell-based, Propionibacterium acnes; conditions: Table 12 series, 200 μg per disc
Procedure: as §6, §7, §8

P. acnes PRP-002 = assay: Disc diffusion assay (DDA), also supplemented; assay type: cell-based, Propionibacterium acnes; conditions: Table 12 series, 200 μg per disc
Procedure: as §6, §7, §8

P. acnes PRP-046 = assay: Disc diffusion assay (DDA), also supplemented; assay type: cell-based, Propionibacterium acnes; conditions: Table 12 series, 200 μg per disc
P. acnes PRP-008 = assay: Disc diffusion assay (DDA), also supplemented; assay type: cell-based, Propionibacterium acnes; conditions: Table 12 series, 200 μg per disc
Procedure: as §6, §7, §8

P. granulosum PRP-055 = assay: Disc diffusion assay (DDA), also supplemented; assay type: cell-based; conditions: Table 12 series, 200 μg per disc
Procedure: as §6, §7, §8

S. aureus ATCC 29213 [4] = assay: Disc diffusion assay (DDA), also supplemented; conditions: single compound, 200 μg per disc
P. acnes NCTC 737 [5] = assay: Disc diffusion assay (DDA), also supplemented; conditions: single compound, 200 μg per disc;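 also: paper disc carrying compound placed on inoculated Wilkins-Chalgren Anaerobe agar pH 6.0, with lipid or NaCl supplement where listed, anaerobic 37 °C for 72 h, inhibition zone diameter read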
P. acnes PRP-068 = assay: Disc diffusion assay (DDA), also supplemented; assay type: cell-based, Propionibacterium acnes; conditions: Table 12 series, 200 μg per disc
Procedure: as §6, §7, §8

P. acnes NCTC 737 [6] = assay: Minimum bactericidal concentration (MBC) assay; assay type: cell-based, Propionibacterium acnes; conditions: Cutibacterium acnes, NCTC737; P. acnes NCTC 737; duplicate; read-out: MBC
Procedure: (§1) (b) Minimum Bactericidal Concentration (MBC) Assay
(§2) Following incubation they were examined visually for bacterial growth.

P. granulosum NCTC 11865 = assay: Disc diffusion assay (DDA), also supplemented; assay type: cell-based; conditions: Table 12 series, 200 μg per disc
Procedure: as §6, §7, §8

P. granulosum PRP-043 = assay: Disc diffusion assay (DDA), also supplemented; assay type: cell-based; conditions: Table 12 series, 200 μg per disc
Procedure: as §6, §7, §8

P. acnes PRP-003 = assay: Disc diffusion assay (DDA), also supplemented; assay type: cell-based, Propionibacterium acnes; conditions: Table 12 series, 200 μg per disc
Procedure: as §6, §7, §8

P. acnes PRP-007 = assay: Disc diffusion assay (DDA), also supplemented; assay type: cell-based, Propionibacterium acnes; conditions: Table 12 series, 200 μg per disc
Procedure: as §6, §7, §8

P. granulosum PRP-005 = assay: Disc diffusion assay (DDA), also supplemented; assay type: cell-based; conditions: Table 12 series, 200 μg per disc
Procedure: as §6, §7, §8

P. granulosum PRP-021 = assay: Disc diffusion assay (DDA), also supplemented; assay type: cell-based; conditions: Table 12 series, 200 μg per disc
Procedure: as §6, §7, §8

P. acnes PRP-010 = assay: Disc diffusion assay (DDA), also supplemented; assay type: cell-based, Propionibacterium acnes; conditions: Table 12 series, 200 μg per disc
Procedure: as §6, §7, §8

S. aureus ATCC 29213 [7] = assay: Minimum bactericidal concentration (MBC) assay; assay type: cell-based, Staphylococcus aureus; conditions: Staphylococcus aureus, ATCC29213; S. aureus ATCC 29213; duplicate; read-out: MBC
Procedure: as §1, §2

P. acnes NCTC 737 [8] = assay: Minimum inhibitory concentration (MIC) assay; assay type: cell-based, Propionibacterium acnes; conditions: P. acnes NCTC 737
From the text: (§3) (a) Minimum Inhibitory Concentration (MIC) Assay
(§4) The culture media were as described above.
(§5) The assays included both negative (culture medium with no micro-organisms) and positive (culture medium plus diluting solvent plus micro-organism) controls.

P. acnes PRP-026 = assay: Disc diffusion assay (DDA), also supplemented; assay type: cell-based, Propionibacterium acnes; conditions: Table 12 series, 200 μg per disc
Procedure: as §6, §7, §8

P. acnes PRP-102 = assay: Disc diffusion assay (DDA), also supplemented; assay type: cell-based, Propionibacterium acnes; conditions: Table 12 series, 200 μg per disc
Procedure: as §6, §7, §8

S. aureus ATCC 29213 [9] = assay: Minimum inhibitory concentration (MIC) assay; assay type: cell-based, Staphylococcus aureus; conditions: S. aureus ATCC 29213
From the text: as §3, §4, §5

P. acnes PRP-023 = assay: Disc diffusion assay (DDA), also supplemented; assay type: cell-based, Propionibacterium acnes; conditions: Table 12 series, 200 μg per disc
Procedure: as §6, §7, §8

P. acnes PRP-101 = assay: Disc diffusion assay (DDA), also supplemented; assay type: cell-based, Propionibacterium acnes; conditions: Table 12 series, 200 μg per disc
Procedure: as §6, §7, §8

P. granulosum PRP-044 = assay: Disc diffusion assay (DDA), also supplemented; assay type: cell-based; conditions: Table 12 series, 200 μg per disc
Procedure: as §6, §7, §8

P. acnes PRP-017 = assay: Disc diffusion assay (DDA), also supplemented; assay type: cell-based, Propionibacterium acnes; conditions: Table 12 series, 200 μg per disc
P. granulosum PRP-006 = assay: Disc diffusion assay (DDA), also supplemented; assay type: cell-based; conditions: Table 12 series, 200 μg per disc
Procedure: as §6, §7, §8

[10] = zone of inhibition diameter, unsupplemented

**Q.** With `Oc1cccc2cccnc12.[Cu+2]` [8-hydroxyquinoline copper (II) salt] as the compound, how does the “activity against propionibacterium strains tested (in words)” value [1] read?
**A.** high activity

**Q.** What about the “activity against staphylococcal strains (in words)” value [2] of the same compound?
**A.** high activity

**Q.** And the “Cu-8HQ MIC” value [3]?
**A.** 7.8 µg/mL

**Q.** `CC(C)(C)c1cc(O)ccc1O` [TBHQ, t-butylhydroquinone] was tested. Which DDA (P. acnes PRP-059) did it give?
**A.** 10.87 mm

**Q.** And the DDA (P. acnes PRP-004)?
**A.** 13.80 mm

**Q.** What about the DDA (P. acnes PRP-039) of the same compound?
**A.** 17.04 mm

**Q.** And the DDA (P. granulosum PRP-019)?
**A.** 0.00 mm

**Q.** What about the DDA (P. acnes PRP-053) of the same compound?
**A.** 9.93 mm

**Q.** What about the DDA (P. acnes PRP-002) of the same compound?
**A.** 10.56 mm

**Q.** What about the DDA (P. acnes PRP-046) of the same compound?
**A.** 14.22 mm

**Q.** What about the DDA (P. acnes PRP-008) of the same compound?
**A.** 13.90 mm

**Q.** What about the DDA (P. granulosum PRP-055) of the same compound?
**A.** 10.04 mm

**Q.** What about the “SS (S)DDA” value (S. aureus ATCC 29213 [4]; salt and serum supplements) of the same compound?
**A.** 43.68 (±1.02) mm

**Q.** What about the “(S)DDA” value (S. aureus ATCC 29213 [4]; [10]) of the same compound?
**A.** 40.42 (±0.89) mm

**Q.** What about the “SL (S)DDA” value (P. acnes NCTC 737 [5]; salt and lipid (1% (v/v) Tween 80) supplements) of the same compound?
**A.** 0.0 mm

**Q.** What about the “(S)DDA” value (P. acnes NCTC 737 [5]; [10]) of the same compound?
**A.** 12.20 (±1.13) mm

**Q.** What about the DDA (P. acnes PRP-068) of the same compound?
**A.** 12.55 mm

**Q.** What about the MBC (P. acnes NCTC 737 [6]) of the same compound?
**A.** 7.8 µg/mL (≈ 46.9 µM)

**Q.** And the DDA (P. granulosum NCTC 11865)?
**A.** 10.45 mm

**Q.** And the DDA (P. granulosum PRP-043)?
**A.** 10.77 mm

**Q.** And the DDA (P. acnes PRP-003)?
**A.** 18.61 mm

**Q.** What about the DDA (P. acnes PRP-007) of the same compound?
**A.** 8.78 mm

**Q.** And the DDA (P. granulosum PRP-005)?
**A.** 15.05 mm

**Q.** And the DDA (P. granulosum PRP-021)?
**A.** 8.57 mm

**Q.** What about the DDA (P. acnes PRP-010) of the same compound?
**A.** 8.68 mm

**Q.** And the MBC (S. aureus ATCC 29213 [7])?
**A.** 7.8 µg/mL (≈ 46.9 µM)

**Q.** What about the MIC (P. acnes NCTC 737 [8]; Cutibacterium acnes, NCTC737, liquid medium, duplicate, read-out: MIC) of the same compound?
**A.** 7.8 µg/mL (≈ 46.9 µM)

**Q.** And the MIC/MBC ratio (P. acnes NCTC 737 [8])?
**A.** 1

**Q.** And the DDA (P. acnes PRP-026)?
**A.** 11.29 mm

**Q.** And the DDA (P. acnes PRP-102)?
**A.** 9.10 mm

**Q.** What about the MIC/MBC ratio (S. aureus ATCC 29213 [9]) of the same compound?
**A.** 0.5

**Q.** What about the DDA (P. acnes PRP-023) of the same compound?
**A.** 11.92 mm

**Q.** And the DDA (P. acnes PRP-101)?
**A.** 14.01 mm

**Q.** What about the DDA (P. granulosum PRP-044) of the same compound?
**A.** 0.00 mm

**Q.** What about the DDA (P. acnes PRP-017) of the same compound?
**A.** 9.93 mm

**Q.** What about the DDA (P. granulosum PRP-006) of the same compound?
**A.** 9.93 mm
